Data taken from ChEMBL document CHEMBL3272349, “Quantitative structure-activity relationships of antimalarial and dihydrofolate reductase inhibition by quinazolines and 5-substituted benzyl-2,4-diaminopyrimidines” (J Med Chem, 1977).

What follows are compounds tested on Plasmodium berghei (assay: Antimalarial activity against Plasmodium berghei infected in po dosed mouse assessed as suppression of parasitemia).
Format: functional

Compound | log(1/SD90)
Nc1nc(N)c2cc(CNc3ccc(Cl)c(Cl)c3)ccc2n1 | 5.56
Nc1nc(N)c2c(n1)CCN(Cc1ccc(Cl)cc1)C2 | 4.14
Nc1nc(N)c2c(n1)CCN(Cc1ccncc1)C2 | 3.31
Nc1nc(N)c2c(n1)CCN(Cc1ccc(Cl)c(Cl)c1)C2 | 4.92
Cc1c(CN(N=O)c2ccc(Cl)c(Cl)c2)ccc2nc(N)nc(N)c12 | 5.52
Nc1nc(N)c2c(n1)CCN(Cc1ccc(Cl)cc1Cl)C2 | 4.4
Cc1c(CNc2ccc(Cl)cc2)ccc2nc(N)nc(N)c12 | 6.55
Nc1nc(N)c2cc(N(C=O)Cc3ccc(Cl)c(Cl)c3)ccc2n1 | 5.24
Nc1nc(N)c2c(n1)CCN(Cc1c(Cl)cccc1Cl)C2 | 4.36
Nc1nc(N)c2cc(CN(N=O)c3ccc(Cl)c(Cl)c3)ccc2n1 | 6.16
Cc1c(CNc2ccc(Cl)c(Cl)c2)ccc2nc(N)nc(N)c12 | 6.02
Nc1nc(N)c2c(n1)CCN(Cc1cccnc1)C2 | 3.88
Nc1nc(N)c2cc(CNc3ccc(Cl)cc3)ccc2n1 | 5.2
Nc1nc(N)c2cc(-n3cccc3)ccc2n1 | 4.29
Nc1nc(N)c2c(n1)CCN(Cc1ccccc1Cl)C2 | 3.73
Nc1nc(N)c2c(n1)CCN(Cc1ccccc1)C2 | 3.65
Cc1c(N(Cc2ccc(Cl)c(Cl)c2)N=O)ccc2nc(N)nc(N)c12 | 5.15
Cc1c(N(C=O)Cc2ccc(Cl)c(Cl)c2)ccc2nc(N)nc(N)c12 | 5.69

What follows are compounds tested on Plasmodium berghei (assay: Antimalarial activity against Plasmodium berghei infected in po dosed mouse assessed as suppression of parasitemia administered for 6 days).
Format: functional

Compound | log(1/SD90)
Nc1nc(N)c2cc(Oc3ccc4cc(Br)ccc4c3Br)ccc2n1 | 4.05
Nc1nc(N)c2cc(Oc3ccc(Cl)c4ccccc34)ccc2n1 | 3.57
Nc1nc(N)c2cc(NCc3ccc(Cl)c(Cl)c3)ccc2n1 | 4.59
Nc1nc(N)c2cc(Oc3cc(C(F)(F)F)cc(C(F)(F)F)c3)ccc2n1 | 4.44
Nc1nc(N)c2cc(Oc3ccc(Cl)c(Cl)c3)ccc2n1 | 4.52
Nc1nc(N)c2cc(Oc3ccccc3)ccc2n1 | 4.43
Nc1nc(N)c2cc(Oc3ccc4cc(Br)ccc4c3)ccc2n1 | 4.09

These compounds were tested on Plasmodium berghei (assay: Antimalarial activity against Plasmodium berghei infected mouse assessed as suppression of parasitemia administered through diet for 6 days).
Format: functional

Compound | log(1/SD90)
CCCN(Cc1ccc(Cl)c(Cl)c1)c1ccc2nc(N)nc(N)c2c1C | 5.36
CN(C)c1nc(N(C)C)c2cc(NCc3ccc(Cl)c(Cl)c3)ccc2n1 | 4.21
CN(Cc1ccc(Cl)c(Cl)c1)c1ccc2nc(N)nc(N)c2c1 | 6.34
CCCCNc1nc(NCCCC)c2cc(NCc3ccc(Cl)c(Cl)c3)ccc2n1 | 3.47
CCCCCCCCN(Cc1ccc(Cl)cc1)c1ccc2nc(N)nc(N)c2c1 | 4.08
CC(C)N(Cc1ccc(Cl)cc1)c1ccc2nc(N)nc(N)c2c1 | 6.76
CCCCN(Cc1ccc(Cl)c(Cl)c1)c1ccc2nc(N)nc(N)c2c1 | 5.06
Nc1nc(N)c2cc(NCCc3ccc(Cl)cc3)ccc2n1 | 4.24
CCN(Cc1ccc(Cl)c(Cl)c1)c1ccc2nc(N)nc(N)c2c1 | 6
CCN(Cc1ccc(Cl)cc1)c1ccc2nc(N)nc(N)c2c1 | 6.4
CN(C)c1nc(N)c2cc(NCc3ccccc3)ccc2n1 | 3.75
Nc1nc(N)c2cc(NCc3ccccc3N)ccc2n1 | 3.07
Nc1nc(N)c2cc(NCc3cccc(Br)c3)ccc2n1 | 5.93
CCN(Cc1ccc(Cl)c(Cl)c1)c1ccc2nc(N)nc(N)c2c1C | 5.2
CC(c1ccc(Cl)c(Cl)c1)N(C)c1ccc2nc(N)nc(N)c2c1 (stereo not given) | 5.6
Nc1nc(N)c2c(Cl)c(NCc3ccc(Cl)c(Cl)c3)ccc2n1 | 5.72
Nc1nc(N)c2cc(N(Cc3ccc(Cl)c(Cl)c3)N=O)cnc2n1 | 4.48
Nc1nc(N)c2cc(NCc3ccc(Cl)s3)ccc2n1 | 4.49
CC(Nc1ccc2nc(N)nc(N)c2c1)c1ccc(Cl)c(Cl)c1 (stereo not given) | 4.6
Nc1nc(N)c2cc(NCc3cccs3)ccc2n1 | 3.82
Nc1nc(N)c2cc(NCc3ccc4ccccc4c3Cl)ccc2n1 | 4.59
CCCN(Cc1ccc(Cl)c(Cl)c1)c1ccc2nc(N)nc(N)c2c1 | 6.1
Cc1c(NCc2ccc(Cl)c(Cl)c2)ccc2nc(N)nc(N)c12 | 4.83
CN(Cc1ccccc1)c1ccc2nc(N)nc(N)c2c1 | 6.15
COc1cccc(CNc2ccc3nc(N)nc(N)c3c2)c1 | 4.15
CCN(Cc1cccc2ccccc12)c1ccc2nc(N)nc(N)c2c1 | 5.97
CCCN(Cc1ccc(Cl)cc1)c1ccc2nc(N)nc(N)c2c1 | 6.3
Nc1nc(N)c2cc(NCc3ccccc3[N+](=O)[O-])ccc2n1 | 3.26
Cc1c(NCc2ccccc2)ccc2nc(N)nc(N)c12 | 5.33
CCN(CC)c1nc(N(CC)CC)c2cc(NCc3ccc(Cl)c(Cl)c3)ccc2n1 | 3.31

These compounds were tested against T1, Dihydrofolate reductase (Enterococcus faecium) (UniProt P00380).
T1 sequence (whole entry): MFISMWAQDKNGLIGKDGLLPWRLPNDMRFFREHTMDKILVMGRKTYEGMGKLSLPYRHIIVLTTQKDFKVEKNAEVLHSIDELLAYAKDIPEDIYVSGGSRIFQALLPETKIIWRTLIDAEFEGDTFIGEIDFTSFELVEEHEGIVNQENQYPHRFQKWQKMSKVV

log(1/I50) | Compound
5.92 | Nc1nc(O)c2cc(Sc3ccc(Cl)c(Cl)c3)ccc2n1
7.68 | CCCCOC(=O)c1ccc(NCc2ccc3nc(N)nc(N)c3c2Cl)cc1
9.15 | Nc1nc(N)c2cc(Sc3cccc(C(F)(F)F)c3)ccc2n1
4.65 | Nc1nc(N)c2c([S+]([O-])c3ccc(Cl)c(Cl)c3)cccc2n1 (stereo not given)
8.29 | CCOC(=O)c1ccc(NCc2ccc3nc(N)nc(N)c3c2C)cc1
5.28 | Nc1nc(O)c2cc([S+]([O-])c3ccc4ccccc4c3)ccc2n1 (stereo not given)
3.51 | Nc1ncnc2ccc(S(=O)(=O)c3ccc4ccccc4c3)cc12
4.07 | Nc1ncnc2ccc(Sc3ccc4ccccc4c3)cc12
6.54 | Nc1nc(N)c2c(Sc3ccc(Cl)c(Cl)c3)cccc2n1
7.24 | Nc1nc(N)c2c(CSc3ccc(Cl)cc3)cccc2n1
7.34 | CCOC(=O)c1ccc(CNc2ccc3nc(N)nc(N)c3c2)cc1
7.68 | CCOC(=O)c1ccc(NCc2ccc3nc(N)nc(N)c3c2)cc1
3.65 | Sc1nc(S)c2cc(Sc3ccc4ccccc4c3)ccc2n1
5.74 | Nc1nc(O)c2cc(CNc3ccc(C(=O)O)cc3)ccc2n1
8.85 | CCOC(=O)c1ccc(CNc2ccc3nc(N)nc(N)c3c2C)cc1
4.05 | Nc1nc(N)c2c(S(=O)(=O)c3ccc4ccccc4c3)cccc2n1
8.64 | CCOC(=O)c1ccc(NCc2ccc3nc(N)nc(N)c3c2Cl)cc1
4.34 | Nc1nc(O)nc2ccc(Sc3ccc4ccccc4c3)cc12
5.85 | Nc1nc(N)c2c(S(=O)(=O)c3ccc(Cl)c(Cl)c3)cccc2n1
5.85 | Nc1nc(O)c2c(S(=O)(=O)c3ccc4ccccc4c3)cccc2n1
4.32 | O=c1[nH]c(=O)c2cc(Sc3ccc4ccccc4c3)ccc2[nH]1
6.09 | CCOC(=O)c1ccc(CNc2ccc3nc(N)nc(O)c3c2Cl)cc1
8.15 | CCCCOC(=O)c1ccc(NCc2ccc3nc(N)nc(N)c3c2C)cc1
8.27 | Nc1nc(N)c2c(Cl)c(CNc3ccc(C(=O)O)cc3)ccc2n1
8.2 | CCOC(=O)c1ccc(CNc2ccc3nc(N)nc(N)c3c2Cl)cc1
7.43 | Nc1nc(N)c2c(/C=C\c3ccc4ccccc4c3)cccc2n1
8.24 | Nc1nc(N)c2cc(Sc3ccc(Cl)c(Cl)c3)ccc2n1
6.74 | Nc1nc(O)c2cc(Sc3ccc4ccccc4c3)ccc2n1

log(1/I50) | Compound
8.6 | Cc1c(CNc2ccc(C(=O)NC(CC(=O)O)C(=O)O)cc2)ccc2nc(N)nc(N)c12 (stereo not given)
4.58 | Nc1ncnc2ccc([S+]([O-])c3ccc4ccccc4c3)cc12 (stereo not given)
5.17 | Nc1nc(S)c2cc(S(=O)(=O)c3ccc4ccccc4c3)ccc2n1
8.4 | Nc1nc(N)c2cc(S(=O)(=O)c3ccc4ccccc4c3)ccc2n1
6.3 | Nc1nc(O)c2cc(S(=O)(=O)c3ccc4ccccc4c3)ccc2n1
9 | Nc1nc(N)c2cc(CN(C=O)c3ccc(C(=O)NC(CCC(=O)O)C(=O)O)cc3)ccc2n1 (stereo not given)
4.52 | CCOC(=O)c1ccc(CNc2ccc3nc(N)nc(O)c3c2C)cc1
8.8 | Nc1nc(N)c2cc(CNc3ccc(C(=O)O)cc3)ccc2n1
7.25 | Nc1nc(N)c2c(Sc3ccc4ccccc4c3)cccc2n1
4.55 | CCOC(=O)c1ccc(CNc2ccc3nc(N)nc(O)c3c2)cc1
4.36 | Nc1nc(N)c2c([S+]([O-])c3ccc4ccccc4c3)cccc2n1 (stereo not given)
8.7 | Nc1nc(N)c2cc([S+]([O-])c3ccc4ccccc4c3)ccc2n1 (stereo not given)
4.68 | Nc1nc(O)c2c(Sc3ccc4ccccc4c3)cccc2n1
8 | Nc1nc(N)c2c(CCc3ccc4ccccc4c3)cccc2n1
6.1 | Nc1nc(S)c2cc(Sc3ccc4ccccc4c3)ccc2n1
4.24 | O=c1[nH]c(=S)c2cc(Sc3ccc4ccccc4c3)ccc2[nH]1
6.52 | Nc1nc(O)c2cc(CN(C=O)c3ccc(C(=O)NC(CCC(=O)O)C(=O)O)cc3)ccc2n1 (stereo not given)
7.07 | CCOC(=O)c1ccc(NCc2ccc3nc(N)nc(O)c3c2)cc1
7.12 | Nc1nc(N)c2c(/C=C/c3ccc4ccccc4c3)cccc2n1
7.55 | Nc1nc(N)c2c(CSc3ccc4ccccc4c3)cccc2n1
3.85 | Oc1nc(S)nc2ccc(Sc3ccc4ccccc4c3)cc12
5.3 | Nc1nc(O)c2cc(S(=O)(=O)c3ccc(Cl)c(Cl)c3)ccc2n1
7.52 | CCCCOC(=O)c1ccc(NCc2ccc3nc(N)nc(N)c3c2)cc1
7.7 | CCOC(=O)CCC(NC(=O)c1ccc(NCc2ccc3nc(N)nc(N)c3c2)cc1)C(=O)OCC (stereo not given)
4.69 | Nc1nc(S)nc2ccc(Sc3ccc4ccccc4c3)cc12
9.15 | Nc1nc(N)c2cc(S(=O)(=O)c3ccc(Cl)c(Cl)c3)ccc2n1
7.96 | Cc1c(CNc2ccc(C(=O)O)cc2)ccc2nc(N)nc(N)c12
